Source: PubChem BioAssay AID1918948 (Molecular Pharmacology Branch, DTP, NCI, 2023)
Several values for one entry are separate records, joined by “and”; a condition that tells them apart may be missing. Equal entries are not always repeated. Each block holds one compound with its values, some of them ahead of it.

Test system: K-562 leukemia growth, % test/control
Experiment: Anticancer human tumor K-562 cell line growth inhibition;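 further: spheroids exposed to compounds for 7 days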;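 on viability, T/C: 100% = DMSO vehicle wells and lower values mean fewer viable cells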
Details: spheroids with HUVEC and MSC; for viability, T/C: stronger effect = lower value
Outline: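 Drug combinations with the LSD1 inhibitor iadademstat tested on tumor cells co-cultured as spheroids with endothelial cells and mesenchymal stem cells. Concentrations descended in half-log increments from clinical Cmax or 10 microM.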

[1] = curve of first compound, second compound 0.1 µM
[2] = curve of first compound, second compound 0.316 µM
[3] = curve of first compound, second compound 1 µM
[4] = curve of first compound, second compound 3.16 µM
[5] = curve of first compound, second compound 10 µM
[6] = second compound 0.1 µM, first compound 0.00949 µM
[7] = second compound 0.1 µM, first compound 0.03 µM
[8] = second compound 0.1 µM, first compound 0.0949 µM
[9] = second compound 0.1 µM, first compound 0.3 µM
[10] = second compound 0.316 µM, first compound 0.00949 µM
[11] = second compound 0.316 µM, first compound 0.03 µM
[12] = second compound 0.316 µM, first compound 0.0949 µM
[13] = second compound 0.316 µM, first compound 0.3 µM
[14] = second compound 1 µM, first compound 0.00949 µM
[15] = second compound 1 µM, first compound 0.03 µM
[16] = second compound 1 µM, first compound 0.0949 µM
[17] = second compound 1 µM, first compound 0.3 µM
[18] = second compound 3.16 µM, first compound 0.00949 µM
[19] = second compound 3.16 µM, first compound 0.03 µM
[20] = second compound 3.16 µM, first compound 0.0949 µM
[21] = second compound 3.16 µM, first compound 0.3 µM
[22] = second compound 10 µM, first compound 0.00949 µM
[23] = second compound 10 µM, first compound 0.03 µM
[24] = second compound 10 µM, first compound 0.0949 µM
[25] = second compound 10 µM, first compound 0.3 µM
[26] = second compound 0.1 µM, first compound 0.949 µM
[27] = second compound 0.1 µM, first compound 3 µM
[28] = second compound 0.316 µM, first compound 0.949 µM
[29] = second compound 0.316 µM, first compound 3 µM
[30] = second compound 1 µM, first compound 0.949 µM
[31] = second compound 1 µM, first compound 3 µM
[32] = second compound 3.16 µM, first compound 0.949 µM
[33] = second compound 3.16 µM, first compound 3 µM
[34] = second compound 10 µM, first compound 0.949 µM
[35] = second compound 10 µM, first compound 3 µM

SMILES: Nc1ccn(C2OC(CO)C(O)C2(F)F)c(=O)n1 (centres undefined) + NC1CCC(NC2CC2c2ccccc2)CC1
IC50 [1]: < 0.949 nM
IC50 [2]: < 0.949 nM
IC50 [3]: < 0.949 nM
IC50 [4]: < 0.949 nM
IC50 [5]: < 0.949 nM
viability, T/C (second compound 0.1 µM, first compound 0.000949 µM): 24%
viability, T/C (second compound 0.1 µM, first compound 0.003 µM): 6.98%
viability, T/C [6]: 5.69%
viability, T/C [7]: 5.94%
viability, T/C [8]: 6.11%
viability, T/C [9]: 5.96%
viability, T/C (second compound 0.316 µM, first compound 0.000949 µM): 25.4%
viability, T/C (second compound 0.316 µM, first compound 0.003 µM): 7.37%
viability, T/C [10]: 5.62%
viability, T/C [11]: 5.72%
viability, T/C [12]: 7.48%
viability, T/C [13]: 6.94%
viability, T/C (second compound 1 µM, first compound 0.000949 µM): 27.7%
viability, T/C (second compound 1 µM, first compound 0.003 µM): 6.4%
viability, T/C [14]: 5.72%
viability, T/C [15]: 6.07%
viability, T/C [16]: 6%
viability, T/C [17]: 6%
viability, T/C (second compound 3.16 µM, first compound 0.000949 µM): 20.3%
viability, T/C (second compound 3.16 µM, first compound 0.003 µM): 6.36%
viability, T/C [18]: 6.71%
viability, T/C [19]: 5.11%
viability, T/C [20]: 5.57%
viability, T/C [21]: 5.77%
viability, T/C (second compound 10 µM, first compound 0.000949 µM): 12.7%
viability, T/C (second compound 10 µM, first compound 0.003 µM): 5.54%
viability, T/C [22]: 5.5%
viability, T/C [23]: 4.88%
viability, T/C [24]: 5.09%
viability, T/C [25]: 5.72%

SMILES: O=C(C=Cc1cccc(S(=O)(=O)Nc2ccccc2)c1)NO + NC1CCC(NC2CC2c2ccccc2)CC1
IC50 [1]: 417 nM
IC50 [2]: 421 nM
IC50 [3]: 430 nM
IC50 [4]: 325 nM
IC50 [5]: 136 nM
viability, T/C [6]: 103%
viability, T/C [7]: 105%
viability, T/C [8]: 106%
viability, T/C [9]: 69.5%
viability, T/C [26]: 1.52%
viability, T/C [27]: 0.12%
viability, T/C [10]: 106%
viability, T/C [11]: 107%
viability, T/C [12]: 108%
viability, T/C [13]: 70.2%
viability, T/C [28]: 1.56%
viability, T/C [29]: 0.11%
viability, T/C [14]: 106%
viability, T/C [15]: 107%
viability, T/C [16]: 105%
viability, T/C [17]: 72%
viability, T/C [30]: 1.58%
viability, T/C [31]: 0.93%
viability, T/C [18]: 101%
viability, T/C [19]: 99.8%
viability, T/C [20]: 97.4%
viability, T/C [21]: 53.7%
viability, T/C [32]: 1.85%
viability, T/C [33]: 0.87%
viability, T/C [22]: 65.4%
viability, T/C [23]: 59.1%
viability, T/C [24]: 61.2%
viability, T/C [25]: 25.9%
viability, T/C [34]: 1.37%
viability, T/C [35]: 0.45%

SMILES: O=C(C=Cc1cccc(S(=O)(=O)Nc2ccccc2)c1)NO + NC1CC1c1ccc(-c2cccc(O)c2)cc1
IC50 [1]: 240 nM
IC50 [2]: 227 nM
IC50 [3]: 221 nM
IC50 [4]: 212 nM
IC50 [5]: 140 nM
viability, T/C [6]: 106%
viability, T/C [7]: 103%
viability, T/C [8]: 102%
viability, T/C [9]: 5.9%
viability, T/C [26]: 2.2%
viability, T/C [27]: 104%
viability, T/C [10]: 102%
viability, T/C [11]: 105%
viability, T/C [12]: 96.9%
viability, T/C [13]: 4.4%
viability, T/C [28]: 1.16%
viability, T/C [29]: 99.1%
viability, T/C [14]: 100%
viability, T/C [15]: 102%
viability, T/C [16]: 95.6%
viability, T/C [17]: 3.61%
viability, T/C [30]: 0.8%
viability, T/C [31]: 96.4%
viability, T/C [18]: 98.5%
viability, T/C [19]: 101%
viability, T/C [20]: 89.8%
viability, T/C [21]: 2.99%
viability, T/C [32]: 1.26%
viability, T/C [33]: 94.5%
viability, T/C [22]: 84.5%
viability, T/C [23]: 82%
viability, T/C [24]: 59.1%
viability, T/C [25]: 2.72%
viability, T/C [34]: 0.89%
viability, T/C [35]: 93.5%

Now from value to compound, other results behind:

IC50 (curve of compound): 2 nM and 0.584 nM
SMILES: CC(C)CC(NC(=O)C(Cc1ccccc1)NC(=O)c1cnccn1)B(O)O (centres undefined)
viability, T/C (compound 0.000316 µM): 98.7% and 102%
viability, T/C (compound 0.00316 µM): 18.8% and 1.3%
viability, T/C (compound 0.01 µM): 1.39% and 0.58%
viability, T/C (compound 0.0316 µM): 1.89% and 0.51%
viability, T/C (compound 0.1 µM): 3.68% and 0.49%

IC50 (curve of compound): 185 nM and 106 nM
SMILES: Nc1ncn(C2CC(O)C(CO)S2)c(=O)n1 (centres undefined)
viability, T/C (compound 0.000949 µM): 111% and 100%
viability, T/C (compound 0.003 µM): 109% and 106%
viability, T/C (compound 0.00949 µM): 109% and 105%
viability, T/C (compound 0.03 µM): 94.4% and 87.5%
viability, T/C (compound 0.0949 µM): 67.2% and 53.8%
viability, T/C (compound 0.3 µM): 37.7% and 19.5%

IC50 (compound alone, run of 01/18/2022): > 10000 nM
SMILES: NC1CCC(NC2CC2c2ccccc2)CC1 (centres undefined)
viability, T/C (compound 0.1 µM): 99% [middle of 24 runs]
viability, T/C (compound 0.316 µM): 100% and 101% and 98.9%
viability, T/C (compound 1 µM): 103% [middle of 25 runs]
viability, T/C (compound 3.16 µM): 103% [middle of 25 runs]
viability, T/C (compound 10 µM): 100% [middle of 23 runs]
